Laboratory results: patent US5053408A, “Hexitol derivatives having vasodilative activity” (Kyowa Hakko Kogyo Co., Ltd., priority 1989, dated 1991)
Counter-ions that a name gives are not always drawn. Like-named read-outs stand apart in the source and are kept apart here.

Legend:
[1] = tested on: coronary vasospasm model (lysine-vasopressin); assay: Effects on coronary vasospasm model (lysine-vasopressin test), inhibition of ST-segment elevation; type: in vivo, male Wistar rats; details: Rattus norvegicus, lysine-vasopressin 0.3 I.U./kg iv, MED = minimum dose with depression rate of 20% or higher
male dd-mice = assay: Acute toxicity; details: mouse, in vivo, 10080 min; for MLD i.p.: ip; for MLD p.o.: po
Procedure: The compounds were orally administered and intraperitoneally administered to male dd-mice weighing 20 to 25 g. […] was determined by observing the mortality for seven days after the administration.

[2] = ip, 20 min before anesthetization, read-out: Coronary vasoconstriction model MED i.p.
[3] = po, 30 min before anesthetization, read-out: Coronary vasoconstriction model MED p.o.

| SMILES | minimal effective dose [1, 2] | minimal effective dose [1, 3] | MLD i.p. (male dd-mice) | MLD p.o. (male dd-mice) |
| --- | --- | --- | --- | --- |
| O=[N+]([O-])O[C@H]1CO[C@H]2[C@@H]1OC[C@@H]2N1CCN(CCCn2cnc3ccccc32)CC1 [Compound 22, 5-[4-[3-(Benzimidazol-1-yl)propyl]piperazin-1-yl]-5-deoxy-1.4;3.6-dianhydro-L-iditol 2-nitrate hydrochloride] | < 25 mg/kg | < 30 mg/kg | > 100 mg/kg | > 300 mg/kg |
| O=C(c1cccnc1)N1CC[N+]([O-])([C@H]2CO[C@H]3[C@@H]2OC[C@@H]3O[N+](=O)[O-])CC1 [Compound 113, 5-Deoxy-5-[4-(pyridin-3-yl)carbonylpiperazin N^1-oxid-1-yl]-1.4;3.6-dianhydro-L-iditol 2-nitrate hydrochloride] | < 25 mg/kg |  | > 100 mg/kg | > 300 mg/kg |
| O=[N+]([O-])O[C@H]1CO[C@H]2[C@@H]1OC[C@@H]2N1CCN(c2nc3ccccc3[nH]2)CC1 [Compound 76, 5-[4-(Benzimidazol-2-yl)piperazin-1-yl]-5-deoxy-1.4;3.6-dianhydro-L-iditol 2-nitrate hydrochloride] |  | < 30 mg/kg | > 100 mg/kg | > 300 mg/kg |
| O=C(c1ccc(O)nc1)N1CCN([C@H]2CO[C@H]3[C@@H]2OC[C@@H]3O[N+](=O)[O-])CC1 [Compound 114, 5-Deoxy-5-[4-(6-hydroxypyridin-3-yl)carbonylpiperazin-1-yl]-1.4;3.6-dianhydro-L-iditol 2-nitrate hydrochloride] |  | < 30 mg/kg | > 100 mg/kg | > 300 mg/kg |
| O=C(c1ccc(Cl)nc1)N1CCN([C@H]2CO[C@H]3[C@@H]2OC[C@@H]3O[N+](=O)[O-])CC1 [Compound 89, 5-[4-(6-Chloropyridin-3-yl)carbonylpiperazin-1-yl]-5-deoxy-1.4;3.6-dianhydro-L-iditol 2-nitrate hydrochloride] |  | < 30 mg/kg | > 100 mg/kg | > 300 mg/kg |
| O=C(c1ccccn1)N1CCN([C@H]2CO[C@H]3[C@@H]2OC[C@@H]3O[N+](=O)[O-])CC1 [Compound 81, 5-Deoxy-5-[4-(pyridin-2-yl)carbonylpiperazin-1-yl]-1.4;3.6-dianhydro-L-iditol 2-nitrate hydrochloride] |  | < 30 mg/kg | > 100 mg/kg | > 300 mg/kg |
| O=[N+]([O-])O[C@@H]1CO[C@H]2[C@@H]1OC[C@@H]2N1CCN(CCCSc2ccccc2)CC1 [Compound 96, 2-Deoxy-2-[4-(3-phenylthiopropyl)piperazin-1-yl]-1.4;3.6-dianhydro-D-glucitol 5-nitrate hydrochloride] | < 25 mg/kg |  | > 100 mg/kg | > 300 mg/kg |
| O=[N+]([O-])O[C@H]1CO[C@H]2[C@@H]1OC[C@@H]2N1CCN(CCc2nc3ccccc3[nH]2)CC1 [Compound 57, 5-[4-[2-(Benzimidazol-2-yl)ethyl]piperazin-1-yl]-5-deoxy-1.4;3.6-dianhydro-L-iditol 2-nitrate hydrochloride] | < 25 mg/kg |  | > 100 mg/kg | > 300 mg/kg |
| COc1cc2nc(N3CCN([C@H]4CO[C@H]5[C@@H]4OC[C@@H]5O[N+](=O)[O-])CC3)nc(N)c2cc1OC [Compound 78, 5-[4-(4-Amino-6,7-dimethoxyquinazolin-2-yl)piperazin-1-yl]-5-deoxy-1.4;3.6-dianhydro-L-iditol 2-nitrate hydrochloride] |  | < 30 mg/kg | > 100 mg/kg | > 300 mg/kg |
| O=C(c1ccccc1)N1CCN([C@H]2CO[C@H]3[C@@H]2OC[C@@H]3O[N+](=O)[O-])CC1 [Compound 84, 5-(4-Benzoylpiperazin-1-yl)-5-deoxy-1.4;3.6-dianhydro-L-iditol 2-nitrate hydrochloride] | < 25 mg/kg |  | > 100 mg/kg | > 300 mg/kg |
| O=[N+]([O-])O[C@H]1CO[C@H]2[C@@H]1OC[C@@H]2N1CCN(CCCn2ccc3ccccc32)CC1 [Compound 27, 5-Deoxy-5-[4-[3-(indol-1-yl)propyl]piperazin-1-yl]-1.4;3.6-dianhydro-L-iditol 2-nitrate hydrochloride] |  | < 30 mg/kg | > 100 mg/kg | > 300 mg/kg |
| O=C(c1cccs1)N1CCN([C@H]2CO[C@H]3[C@@H]2OC[C@@H]3O[N+](=O)[O-])CC1 [Compound 111, 5-Deoxy-5-[4-(thiophen-2-yl)carbonylpiperazin-1-yl]-1.4;3.6-dianhydro-L-iditol 2-nitrate hydrochloride] |  | < 30 mg/kg | > 100 mg/kg | > 300 mg/kg |
| O=[N+]([O-])O[C@H]1CO[C@H]2[C@@H]1OC[C@@H]2N1CCN(c2nnnn2-c2ccccc2)CC1 [Compound 60, 5-Deoxy-5-[4-(1-phenyl-1H-tetrazol-5-yl)piperazin-1-yl-]-1.4;3.6-dianhydro-L-iditol 2-nitrate hydrochloride] | < 25 mg/kg |  | > 100 mg/kg | > 300 mg/kg |
| O=C(c1ccoc1)N1CCN([C@H]2CO[C@H]3[C@@H]2OC[C@@H]3O[N+](=O)[O-])CC1 [Compound 112, 5-Deoxy-5-[4-(furan-3-yl)carbonylpiperazin-1-yl]-1.4;3.6-dianhydro-L-iditol2-nitrate hydrochloride] |  | < 30 mg/kg | > 100 mg/kg | > 300 mg/kg |
| O[C@H]1CO[C@H]2[C@@H]1OC[C@@H]2N1CCN(CCCOc2ccccc2)CC1 [Compound 102, 5-Deoxy-5-[4-(3-phenoxypropyl)piperazin-1-yl]-1.4;3.6-dianhydro-L-iditol hydrochloride] | < 25 mg/kg | < 30 mg/kg | > 100 mg/kg | > 300 mg/kg |
| Cc1ccc(C(=O)N2CCN([C@H]3CO[C@H]4[C@@H]3OC[C@@H]4O[N+](=O)[O-])CC2)cn1 [Compound 93, 5-Deoxy-5-[4-(6-methylpyridin-3-yl)carbonylpiperazin-1-yl]-1.4;3.6-dianhydro-L-iditol 2-nitrate hydrochloride] |  | < 30 mg/kg | > 100 mg/kg | > 300 mg/kg |
| O=[N+]([O-])O[C@H]1CO[C@H]2[C@@H]1OC[C@@H]2N1CCN(CCCn2ccnc2)CC1 [Compound 21, 5-Deoxy-5-[4-[3-(imidazol-1-yl)propyl]piperazin-1-yl]-1.4;3.6-dianhydro-L-iditol 2-nitrate hydrochloride] |  | < 30 mg/kg | > 100 mg/kg | > 300 mg/kg |
